Assay results taken from ChEMBL document CHEMBL4630907 (2021).
Calls of active or inactive are those of the source. No cut-off for these calls is given here.

Tests used:
[1] = target: T1, Bromodomain-containing protein 2 (Homo sapiens, UniProt P25440); experiment: TR-FRET assay (BRD2 BD1)
Target sequence in this assay (P25440 whole entry): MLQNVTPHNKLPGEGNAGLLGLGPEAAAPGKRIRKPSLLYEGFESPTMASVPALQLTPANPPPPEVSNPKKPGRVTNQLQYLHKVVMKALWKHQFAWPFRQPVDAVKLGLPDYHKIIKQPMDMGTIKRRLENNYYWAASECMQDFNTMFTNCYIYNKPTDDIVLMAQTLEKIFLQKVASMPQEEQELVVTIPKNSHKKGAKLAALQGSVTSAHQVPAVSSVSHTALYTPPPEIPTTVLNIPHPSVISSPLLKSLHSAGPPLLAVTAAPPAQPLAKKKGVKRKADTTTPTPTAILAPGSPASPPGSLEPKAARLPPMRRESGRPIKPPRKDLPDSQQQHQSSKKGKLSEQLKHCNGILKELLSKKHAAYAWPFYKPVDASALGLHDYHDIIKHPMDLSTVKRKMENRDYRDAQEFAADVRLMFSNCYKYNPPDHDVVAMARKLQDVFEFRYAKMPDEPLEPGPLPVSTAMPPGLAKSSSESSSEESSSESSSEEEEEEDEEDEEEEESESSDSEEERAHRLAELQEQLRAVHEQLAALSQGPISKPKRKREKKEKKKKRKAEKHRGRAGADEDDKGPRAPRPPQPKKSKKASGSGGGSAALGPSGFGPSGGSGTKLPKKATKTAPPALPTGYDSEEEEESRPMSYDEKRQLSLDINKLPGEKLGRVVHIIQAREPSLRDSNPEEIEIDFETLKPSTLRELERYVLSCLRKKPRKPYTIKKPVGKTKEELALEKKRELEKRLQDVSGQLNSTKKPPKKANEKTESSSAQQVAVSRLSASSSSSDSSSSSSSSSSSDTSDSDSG

[2] = target: T1, Bromodomain-containing protein 2; experiment: TR-FRET assay (BRD2 BD2)
Target sequence in this assay (P25440 whole entry): as above

[3] = target: T2, Bromodomain-containing protein 3 (Homo sapiens, UniProt Q15059); experiment: TR-FRET assay (BRD3 BD1)
Target sequence in this assay (Q15059 whole entry): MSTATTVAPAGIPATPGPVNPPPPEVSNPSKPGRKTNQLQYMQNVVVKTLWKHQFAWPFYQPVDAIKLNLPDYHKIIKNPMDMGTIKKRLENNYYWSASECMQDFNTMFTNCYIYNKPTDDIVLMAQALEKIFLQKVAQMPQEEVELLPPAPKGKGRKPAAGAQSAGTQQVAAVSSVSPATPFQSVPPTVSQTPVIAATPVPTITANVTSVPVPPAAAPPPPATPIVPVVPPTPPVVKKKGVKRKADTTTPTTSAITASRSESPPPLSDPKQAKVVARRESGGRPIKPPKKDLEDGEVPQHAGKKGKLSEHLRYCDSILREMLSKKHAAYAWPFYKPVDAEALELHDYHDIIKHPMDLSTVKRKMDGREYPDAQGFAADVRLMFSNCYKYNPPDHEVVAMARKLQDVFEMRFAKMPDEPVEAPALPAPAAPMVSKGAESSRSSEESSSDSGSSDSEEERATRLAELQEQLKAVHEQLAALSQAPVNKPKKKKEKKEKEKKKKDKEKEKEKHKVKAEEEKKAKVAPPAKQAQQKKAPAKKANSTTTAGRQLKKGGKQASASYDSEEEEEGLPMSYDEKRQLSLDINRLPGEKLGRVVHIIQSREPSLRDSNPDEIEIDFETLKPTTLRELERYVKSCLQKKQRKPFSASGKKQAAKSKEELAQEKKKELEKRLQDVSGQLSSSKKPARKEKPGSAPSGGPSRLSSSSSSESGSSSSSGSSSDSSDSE

[4] = target: T1, Bromodomain-containing protein 2; experiment: BET mutant TR-FRET assay (BRD2 BD1)
Target sequence in this assay (P25440 whole entry, looked up, change not shown): as the sequence (P25440 whole entry) above

[5] = target: T1, Bromodomain-containing protein 2; experiment: BET mutant TR-FRET assay (BRD2 BD2)
Target sequence in this assay (P25440 whole entry, looked up, change not shown): as the sequence (P25440 whole entry) above

[6] = target: T2, Bromodomain-containing protein 3; experiment: BET mutant TR-FRETassay (BRD3 BD1)
[7] = target: ATPase family AAA domain-containing protein 2 (Homo sapiens, UniProt Q6PL18); experiment: ATAD2A DiscoverX BROMOscan
[8] = target: Bromodomain adjacent to zinc finger domain protein 2A (Homo sapiens, UniProt Q9UIF9); experiment: BAZ2A DiscoverX BROMOscan
[9] = target: T1, Bromodomain-containing protein 2; experiment: BRD2(1) DiscoverX BROMOscan
Target sequence in this assay (P25440 whole entry): as above

[10] = target: T2, Bromodomain-containing protein 3; experiment: BRD3(1) DiscoverX BROMOscan
Target sequence in this assay (Q15059 whole entry): as the sequence (Q15059 whole entry) above

[11] = target: T2, Bromodomain-containing protein 3; experiment: BRD3(2) DiscoverX BROMOscan
Target sequence in this assay (Q15059 whole entry): as above

[12] = target: Bromodomain-containing protein 7 (Homo sapiens, UniProt Q9NPI1); experiment: BRD7 DiscoverX BROMOscan
Chain of Bromodomain-containing protein 7 (Q9NPI1 whole entry): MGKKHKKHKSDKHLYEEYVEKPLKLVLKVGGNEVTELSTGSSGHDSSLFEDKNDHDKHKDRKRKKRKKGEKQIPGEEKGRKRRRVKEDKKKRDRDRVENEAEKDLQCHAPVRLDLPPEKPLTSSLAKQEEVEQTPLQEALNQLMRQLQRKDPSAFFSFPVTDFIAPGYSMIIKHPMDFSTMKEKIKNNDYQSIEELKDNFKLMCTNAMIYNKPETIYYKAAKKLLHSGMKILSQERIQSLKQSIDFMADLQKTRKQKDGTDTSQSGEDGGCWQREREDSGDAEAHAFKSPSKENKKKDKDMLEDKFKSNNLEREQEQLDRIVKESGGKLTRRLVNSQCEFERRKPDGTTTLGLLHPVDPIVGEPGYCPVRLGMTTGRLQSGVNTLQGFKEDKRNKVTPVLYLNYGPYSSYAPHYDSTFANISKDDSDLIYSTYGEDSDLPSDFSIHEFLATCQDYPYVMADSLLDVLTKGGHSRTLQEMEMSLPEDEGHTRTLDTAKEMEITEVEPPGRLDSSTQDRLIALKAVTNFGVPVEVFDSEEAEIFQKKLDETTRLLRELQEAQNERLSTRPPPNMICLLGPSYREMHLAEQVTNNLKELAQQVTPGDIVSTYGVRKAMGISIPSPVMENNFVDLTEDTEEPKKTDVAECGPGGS

[13] = target: Bromodomain and PHD finger-containing protein 3 (Homo sapiens, UniProt Q9ULD4); experiment: BRPF3 DiscoverX BROMOscan
[14] = target: Chromatin remodeling regulator CECR2 (Homo sapiens, UniProt Q9BXF3); experiment: CECR2 DiscoverX BROMOscan
[15] = target: CREB-binding protein (Homo sapiens, UniProt Q92793); experiment: CREBBP DiscoverX BROMOscan
[16] = target: Nucleosome-remodeling factor subunit BPTF (Homo sapiens, UniProt Q12830); experiment: FALZ DiscoverX BROMOscan
[17] = target: Histone acetyltransferase KAT2A (Homo sapiens, UniProt Q92830); experiment: GCN5L2 DiscoverX BROMOscan
Chain of Histone acetyltransferase KAT2A (Q92830 whole entry): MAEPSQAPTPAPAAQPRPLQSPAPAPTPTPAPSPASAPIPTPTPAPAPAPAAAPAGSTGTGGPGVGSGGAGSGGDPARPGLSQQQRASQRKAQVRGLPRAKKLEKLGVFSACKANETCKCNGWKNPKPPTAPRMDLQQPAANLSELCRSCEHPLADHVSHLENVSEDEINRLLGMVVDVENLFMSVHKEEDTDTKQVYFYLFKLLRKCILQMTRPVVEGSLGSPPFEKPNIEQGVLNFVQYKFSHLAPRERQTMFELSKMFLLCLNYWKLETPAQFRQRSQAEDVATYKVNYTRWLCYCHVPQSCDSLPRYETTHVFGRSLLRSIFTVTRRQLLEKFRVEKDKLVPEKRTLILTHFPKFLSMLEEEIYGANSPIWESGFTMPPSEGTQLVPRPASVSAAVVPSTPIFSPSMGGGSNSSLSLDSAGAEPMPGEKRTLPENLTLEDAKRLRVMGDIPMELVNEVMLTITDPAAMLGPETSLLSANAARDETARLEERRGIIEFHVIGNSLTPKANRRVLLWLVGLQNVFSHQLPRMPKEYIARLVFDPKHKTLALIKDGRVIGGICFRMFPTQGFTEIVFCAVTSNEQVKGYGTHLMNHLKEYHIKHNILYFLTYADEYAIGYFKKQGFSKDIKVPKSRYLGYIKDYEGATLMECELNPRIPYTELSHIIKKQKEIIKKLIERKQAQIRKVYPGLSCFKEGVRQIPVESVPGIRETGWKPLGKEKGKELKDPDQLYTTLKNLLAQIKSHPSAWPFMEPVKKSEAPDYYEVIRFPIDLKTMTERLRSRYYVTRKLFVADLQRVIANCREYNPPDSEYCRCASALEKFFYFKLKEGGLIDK

[18] = target: Protein polybromo-1 (Homo sapiens, UniProt Q86U86); experiment: PBRM1(5) DiscoverX BROMOscan
[19] = target: Histone acetyltransferase KAT2B (Homo sapiens, UniProt Q92831); experiment: PCAF DiscoverX BROMOscan
[20] = target: SWI/SNF-related matrix-associated actin-dependent regulator of chromatin subfamily A member 2 (Homo sapiens, UniProt P51531); experiment: SMARCA2 DiscoverX BROMOscan
[21] = target: Transcription initiation factor TFIID subunit 1 (Homo sapiens, UniProt P21675); experiment: TAF1(2) DiscoverX BROMOscan
[22] = target: Transcription initiation factor TFIID subunit 1-like (Homo sapiens, UniProt Q8IZX4); experiment: TAF1L(2) DiscoverX BROMOscan
[23] = target: Transcription intermediary factor 1-alpha (Homo sapiens, UniProt O15164); experiment: TRIM24(PHD,Bromo.) DiscoverX BROMOscan
[24] = target: E3 ubiquitin-protein ligase TRIM33 (Homo sapiens, UniProt Q9UPN9); experiment: TRIM33(PHD,Bromo.) DiscoverX BROMOscan
[25] = target: Bromodomain and WD repeat-containing protein 1 (Homo sapiens, UniProt Q9NSI6); experiment: WDR9(2) DiscoverX BROMOscan
[26] = target: Cytochrome P450 3A4 (Homo sapiens, UniProt P08684); experiment: (§1) Cross screening panel
Chain of Cytochrome P450 3A4 (P08684 whole entry): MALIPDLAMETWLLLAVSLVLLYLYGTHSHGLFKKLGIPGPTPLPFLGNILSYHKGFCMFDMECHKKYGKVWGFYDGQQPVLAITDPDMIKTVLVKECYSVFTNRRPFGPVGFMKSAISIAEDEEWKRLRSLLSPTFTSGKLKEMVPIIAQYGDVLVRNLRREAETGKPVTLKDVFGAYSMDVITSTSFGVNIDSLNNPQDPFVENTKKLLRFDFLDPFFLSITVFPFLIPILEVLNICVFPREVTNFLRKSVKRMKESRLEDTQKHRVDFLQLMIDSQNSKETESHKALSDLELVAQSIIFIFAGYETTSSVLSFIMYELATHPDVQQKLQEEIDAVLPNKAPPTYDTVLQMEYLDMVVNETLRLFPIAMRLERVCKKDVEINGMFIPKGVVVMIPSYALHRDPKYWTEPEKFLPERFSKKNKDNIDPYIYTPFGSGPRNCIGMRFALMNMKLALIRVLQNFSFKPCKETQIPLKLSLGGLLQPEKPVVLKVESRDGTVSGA

[27] = target: Voltage-gated potassium channel, IKs; KCNQ1(Kv7.1)/KCNE1(MinK) (Homo sapiens, UniProt P15382+P51787); experiment: as §1; format: protein-complex assay
[28] = target: 5-hydroxytryptamine receptor 1A (Homo sapiens) (UniProt P08908); details: Compound concentration 10.0 uM
[29] = target: 5-hydroxytryptamine receptor 1B (Homo sapiens, UniProt P28222); details: Compound concentration 10.0 uM
[30] = target: 5-hydroxytryptamine receptor 3A (Homo sapiens) (UniProt P46098); details: Compound concentration 10.0 uM
[31] = target: 5-hydroxytryptamine receptor 5A (Homo sapiens) (UniProt P47898); details: Compound concentration 10.0 uM
[32] = target: D(1A) dopamine receptor (Homo sapiens, UniProt P21728); details: Compound concentration 10.0 uM
[33] = target: D(3) dopamine receptor (Homo sapiens, UniProt P35462); details: Compound concentration 10.0 uM
[34] = target: Sodium-dependent serotonin transporter (Homo sapiens, UniProt P31645); details: Compound concentration 10.0 uM
[35] = target: Sodium-dependent dopamine transporter (Homo sapiens) (UniProt Q01959); details: Compound concentration 10.0 uM
[36] = target: Mu-type opioid receptor (Homo sapiens, UniProt P35372); details: Compound concentration 10.0 uM
[37] = target: Delta-type opioid receptor (Homo sapiens) (UniProt P41143); details: Compound concentration 10.0 uM
[38] = target: Kappa-type opioid receptor (Homo sapiens, UniProt P41145); details: Compound concentration 10.0 uM
[39] = target: Histamine H1 receptor (Homo sapiens, UniProt P35367); details: Compound concentration 10.0 uM
[40] = target: Histamine H2 receptor (Homo sapiens) (UniProt P25021); details: Compound concentration 10.0 uM
[41] = target: Histamine H3 receptor (Homo sapiens) (UniProt Q9Y5N1); details: Compound concentration 10.0 uM
Chain of Histamine H3 receptor (Homo sapiens) (Q9Y5N1 whole entry): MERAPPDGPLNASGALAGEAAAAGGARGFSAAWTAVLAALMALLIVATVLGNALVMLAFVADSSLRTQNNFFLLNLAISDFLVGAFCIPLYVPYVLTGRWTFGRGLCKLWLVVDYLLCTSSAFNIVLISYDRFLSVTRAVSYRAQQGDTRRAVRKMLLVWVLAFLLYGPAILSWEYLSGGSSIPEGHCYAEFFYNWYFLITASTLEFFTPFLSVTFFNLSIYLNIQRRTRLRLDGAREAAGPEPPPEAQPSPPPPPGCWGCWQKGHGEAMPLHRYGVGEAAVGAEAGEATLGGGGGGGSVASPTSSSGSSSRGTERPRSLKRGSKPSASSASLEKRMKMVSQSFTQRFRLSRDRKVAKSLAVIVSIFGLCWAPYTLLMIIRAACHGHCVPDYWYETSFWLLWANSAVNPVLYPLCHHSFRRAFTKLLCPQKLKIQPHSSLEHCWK

[42] = target: Alpha-1A adrenergic receptor (Homo sapiens) (UniProt P35348); details: Compound concentration 10.0 uM
[43] = target: Alpha-2A adrenergic receptor (Homo sapiens) (UniProt P08913); details: Compound concentration 10.0 uM
[44] = target: Muscarinic acetylcholine receptor M1 (Homo sapiens) (UniProt P11229); details: Compound concentration 10.0 uM
[45] = target: Muscarinic acetylcholine receptor M4 (Homo sapiens) (UniProt P08173); details: Compound concentration 10.0 uM
[46] = target: Muscarinic acetylcholine receptor M5 (Homo sapiens) (UniProt P08912); details: Compound concentration 10.0 uM
[47] = target: GABA-A receptor; anion channel (Rattus norvegicus) (UniProt O09028+P15431+P18506+P18508+P19969+P20236+P23574+P23576+P28471+P28473+P30191+P62813+P63079+P63138+Q91ZM7+Q9ES14); details: Compound concentration 10.0 uM
[48] = species on record: Rattus norvegicus; details: Compound concentration 10.0 uM
[49] = target: Alpha-1D adrenergic receptor (Homo sapiens) (UniProt P25100); details: Compound concentration 10.0 uM
[50] = target: Sigma intracellular receptor 2 (Homo sapiens) (UniProt Q5BJF2); details: Compound concentration 10.0 uM

Q: Which results are given for `COCc1nc2cnc3cc(-c4c(C)noc4C)c(OC[C@H]4CCNC4)cc3c2n1[C@H](C)c1ccccc1` [GSK778]?
A: IC50 [1]: 0.075 µM (active); IC50 [2]: 3.95 µM (not active); IC50 [3]: 0.041 µM (active); pIC50 [4]: 7.1; pIC50 [5]: 5.5; pIC50 [6]: 7.4; Kd [7]: 30 µM; Kd [8]: 30 µM; Kd [9]: 0.013 µM; Kd [10]: 0.005 µM; Kd [11]: 0.31 µM; Kd [12]: 30 µM; Kd [13]: 30 µM; Kd [14]: 30 µM; Kd [15]: 3.8 µM; Kd [16]: 30 µM; Kd [17]: 30 µM; Kd [18]: 30 µM; Kd [19]: 33 µM; Kd [20]: 30 µM; Kd [21]: 30 µM; Kd [22]: 30 µM; Kd [23]: 30 µM; Kd [24]: 30 µM; Kd [25]: 30 µM; IC50 [26]: 1 µM; IC50 [27]: > 25.1 µM; inhibition [28]: 15.3%; inhibition [29]: 8.66%; inhibition [30]: 69.8%; inhibition [31]: 21.5%; inhibition [32]: 2.89%; inhibition [33]: 62.4%; inhibition [34]: 10.7%; inhibition [35]: 27.9%; inhibition [36]: 16.9%; inhibition [37]: 38.5%; inhibition [38]: 15.5%; inhibition [39]: 0.33%; inhibition [40]: 12.3%; inhibition [41]: -5.03%; inhibition [42]: 0.31%; inhibition [43]: 9.95%; inhibition [44]: -1.37%; inhibition [45]: 15.7%; inhibition [46]: 24.6%; inhibition [47]: 91.6%; inhibition [48]: 7.75%; inhibition [49]: 17%; inhibition [50]: 23%
